Tested on: MRSA USA300
Assay type: cell-based, Staphylococcus aureus
Conditions: vs S. aureus RN4220

CC1(C)S[C@@H]2[C@H](NC(=O)[C@H](N)c3ccccc3)C(=O)N2[C@H]1C(=O)O [ampicillin]
MIC increase in MRSA USA300 relative to the methicillin-susceptible strain: at least 16 fold

— PMC10866013 (Nature, 2023)
